Laboratory results taken from PubChem BioAssay AID330 (DTP/NCI, 2004).
Where “and” joins values, the source holds several entries; their conditions need not be identical. Equal values may be shown once. Toxic doses and inconclusive results are not listed.

Test system: P388 leukemia ip, CD2F1 mice, survival T/C
Assay: NCI In Vivo Anticancer Drug Screen. Data for tumor model P388 Leukemia (intraperitoneal) in CD2F1 (CDF1) mice
Conditions: endpoint: median survival time, higher = longer survival
Method in brief: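 Mice carrying the transplanted tumor received test compound or vehicle. Survival was recorded in each group, and the value is the treated-group measurement divided by that of the vehicle-treated control group.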

[1] = dose: 200.0 mg/kg/injection, schedule: Q01DX009 (ip), vehicle: saline with Tween-80
[2] = dose: 50.0 mg/kg/injection, schedule: Q01DX009 (ip), vehicle: saline
[3] = dose: 100.0 mg/kg/injection, schedule: Q01DX009 (ip), vehicle: saline
[4] = dose: 200.0 mg/kg/injection, schedule: Q01DX009 (ip), vehicle: saline
[5] = dose: 50.0 mg/kg/injection, schedule: Q01DX009 (ip), vehicle: Klucel (hydroxypropylcellulose) (HPC)
[6] = dose: 100.0 mg/kg/injection, schedule: Q01DX009 (ip), vehicle: Klucel (hydroxypropylcellulose) (HPC)
[7] = dose: 200.0 mg/kg/injection, schedule: Q01DX009 (ip), vehicle: Klucel (hydroxypropylcellulose) (HPC)
[8] = dose: 60.0 mg/kg/injection, schedule: Q01DX005 (ip), vehicle: saline with Tween-80
[9] = dose: 120.0 mg/kg/injection, schedule: Q01DX005 (ip), vehicle: saline with Tween-80
[10] = dose: 240.0 mg/kg/injection, schedule: Q01DX005 (ip), vehicle: saline with Tween-80

SMILES: O=C1NC(c2ccccc2)(c2ccccc2)C(=O)N1CCS
- T/C (dose: 25.0 mg/kg/injection, schedule: Q04DX003 (ip), vehicle: Klucel (hydroxypropylcellulose) (HPC)): 99 % of control and 106 % of control
- T/C (dose: 50.0 mg/kg/injection, schedule: Q04DX003 (ip), vehicle: Klucel (hydroxypropylcellulose) (HPC)): 100 % of control
- T/C (dose: 100.0 mg/kg/injection, schedule: Q04DX003 (ip), vehicle: Klucel (hydroxypropylcellulose) (HPC)): 100 % of control and 114 % of control
- T/C (dose: 200.0 mg/kg/injection, schedule: Q04DX003 (ip), vehicle: Klucel (hydroxypropylcellulose) (HPC)): 104 % of control and 108 % of control
- T/C (dose: 400.0 mg/kg/injection, schedule: Q04DX003 (ip), vehicle: Klucel (hydroxypropylcellulose) (HPC)): 112 % of control and 114 % of control

SMILES: CN(C)CC(CN(C)C)C(=O)c1ccc(Oc2ccc(Cl)c(Cl)c2)cc1
- T/C (dose: 1.88 mg/kg/injection, schedule: Q01DX005 (ip), vehicle: saline): 107 % of control
- T/C (dose: 3.75 mg/kg/injection, schedule: Q01DX005 (ip), vehicle: saline): 109 % of control
- T/C (dose: 7.5 mg/kg/injection, schedule: Q01DX005 (ip), vehicle: saline): 117 % of control

SMILES: Cc1ncc([N+](=O)[O-])n1CCOC(=O)c1ccc(F)cc1
- T/C (dose: 50.0 mg/kg/injection, schedule: Q01DX009 (ip), vehicle: saline with Tween-80): 99 % of control
- T/C (dose: 100.0 mg/kg/injection, schedule: Q01DX009 (ip), vehicle: saline with Tween-80): 92 % of control
- T/C [1]: 97 % of control

SMILES: O=S(=O)(c1ccc(Cl)cc1)S(=O)(=O)c1ccc(Cl)cc1
- T/C [2]: 92 % of control
- T/C [3]: 97 % of control
- T/C [4]: 101 % of control

SMILES: CC1=CC[N+](C)(C)C(C(N)=O)C1 (stereo unspecified)
- T/C (dose: 50.0 mg/kg/injection, schedule: Q01DX005 (ip), vehicle: saline): 108 % of control
- T/C (dose: 100.0 mg/kg/injection, schedule: Q01DX005 (ip), vehicle: saline): 105 % of control

SMILES: O=S(=O)(C(c1ccc(Cl)cc1)c1ccc(Cl)cc1)C(Cl)(Cl)Cl
- T/C (dose: 25.0 mg/kg/injection, schedule: Q01DX001 (ip), vehicle: Klucel (hydroxypropylcellulose) (HPC)): 108 % of control
- T/C (dose: 50.0 mg/kg/injection, schedule: Q01DX001 (ip), vehicle: Klucel (hydroxypropylcellulose) (HPC)): 102 % of control
- T/C (dose: 100.0 mg/kg/injection, schedule: Q01DX001 (ip), vehicle: Klucel (hydroxypropylcellulose) (HPC)): 102 % of control

SMILES: CNC(=O)Oc1ncccc1[N+](=O)[O-]
- T/C [2]: 98 % of control and 117 % of control
- T/C [3]: 107 % of control and 119 % of control
- T/C [4]: 98 % of control and 88 % of control

SMILES: O=C(O)C(c1ccccc1)C1CCCCC1C1CCCCC1 (stereo unspecified)
- T/C (dose: 12.5 mg/kg/injection, schedule: Q01DX005 (ip), vehicle: saline with Tween-80): 98 % of control
- T/C (dose: 25.0 mg/kg/injection, schedule: Q01DX005 (ip), vehicle: saline with Tween-80): 95 % of control
- T/C (dose: 50.0 mg/kg/injection, schedule: Q01DX005 (ip), vehicle: saline with Tween-80): 100 % of control and 93 % of control

SMILES: CSc1ccccc1[As](c1ccccc1)c1ccccc1
- T/C [5]: 95 % of control
- T/C [6]: 91 % of control
- T/C [7]: 97 % of control

SMILES: CC12CCC(O)CC1CCC1C2CCC2(C)C(c3ccc(=O)oc3)CC3OC312 (stereo unspecified)
- T/C (dose: 0.31 mg/kg/injection, schedule: Q01DX009 (ip), vehicle: saline with Tween-80): 108 % of control
- T/C (dose: 0.62 mg/kg/injection, schedule: Q01DX009 (ip), vehicle: saline with Tween-80): 100 % of control
- T/C (dose: 1.25 mg/kg/injection, schedule: Q01DX009 (ip), vehicle: saline with Tween-80): 104 % of control
- T/C (dose: 2.5 mg/kg/injection, schedule: Q01DX009 (ip), vehicle: saline with Tween-80): 115 % of control
- T/C (dose: 5.0 mg/kg/injection, schedule: Q01DX009 (ip), vehicle: saline with Tween-80): 100 % of control and 87 % of control
- T/C (dose: 10.0 mg/kg/injection, schedule: Q01DX009 (ip), vehicle: saline with Tween-80): 87 % of control
- T/C (dose: 20.0 mg/kg/injection, schedule: Q01DX009 (ip), vehicle: saline with Tween-80): 88 % of control

SMILES: O=[N+]([O-])c1ccc(N/N=C/c2ccc(Cl)cc2)nc1
- T/C (dose: 6.25 mg/kg/injection, schedule: Q01DX009 (ip), vehicle: Klucel (hydroxypropylcellulose) (HPC)): 87 % of control
- T/C (dose: 12.5 mg/kg/injection, schedule: Q01DX009 (ip), vehicle: Klucel (hydroxypropylcellulose) (HPC)): 89 % of control
- T/C (dose: 25.0 mg/kg/injection, schedule: Q01DX009 (ip), vehicle: Klucel (hydroxypropylcellulose) (HPC)): 91 % of control
- T/C [5]: 91 % of control
- T/C [6]: 98 % of control
- T/C [7]: 105 % of control and 89 % of control
- T/C [1]: 91 % of control and 93 % of control
- T/C (dose: 400.0 mg/kg/injection, schedule: Q01DX009 (ip), vehicle: saline with Tween-80): 112 % of control

SMILES: CCCNc1ncc(C(=O)O)c(=O)[nH]1
- T/C (dose: 1.56 mg/kg/injection, schedule: Q01DX009 (ip), vehicle: saline with Tween-80): 104 % of control
- T/C (dose: 3.12 mg/kg/injection, schedule: Q01DX009 (ip), vehicle: saline with Tween-80): 95 % of control
- T/C (dose: 6.25 mg/kg/injection, schedule: Q01DX009 (ip), vehicle: saline with Tween-80): 95 % of control

SMILES: CCO/C=C\Br
- T/C [8]: 105 % of control
- T/C [9]: 99 % of control
- T/C [10]: 100 % of control

SMILES: C=C1C(=O)O[C@@H]2C[C@@H](C)[C@@H]3CC(=O)OC[C@@]3(C)C[C@H]12
- T/C (dose: 50.0 mg/kg/injection, schedule: Q01DX001 (ip), vehicle: saline with Tween-80): 100 % of control
- T/C (dose: 100.0 mg/kg/injection, schedule: Q01DX001 (ip), vehicle: saline with Tween-80): 117 % of control
- T/C (dose: 200.0 mg/kg/injection, schedule: Q01DX001 (ip), vehicle: saline with Tween-80): 118 % of control

SMILES: Cc1ccc(C(=O)OC(C(=O)O)C(OC(=O)c2ccc(C)cc2)C(=O)O)cc1 (stereo unspecified) (tested in a mixture with another compound)
- T/C (dose: 5.25 mg/kg/injection, schedule: Q01DX005 (ip), vehicle: Klucel (hydroxypropylcellulose) (HPC)): 105 % of control
- T/C (dose: 10.5 mg/kg/injection, schedule: Q01DX005 (ip), vehicle: Klucel (hydroxypropylcellulose) (HPC)): 107 % of control
- T/C (dose: 21.0 mg/kg/injection, schedule: Q01DX005 (ip), vehicle: Klucel (hydroxypropylcellulose) (HPC)): 105 % of control
- T/C (dose: 42.0 mg/kg/injection, schedule: Q01DX005 (ip), vehicle: Klucel (hydroxypropylcellulose) (HPC)): 100 % of control

SMILES: O=C(c1ccccc1)c1ccccc1NCC(O)COc1cccc2ccccc12 (stereo unspecified)
- T/C [8]: 100 % of control
- T/C [9]: 92 % of control
- T/C [10]: 91 % of control

SMILES: C[n+]1ccc(Nc2ccc(NC(=O)c3ccc(Nc4cc[n+](C)c5ccc(N)cc45)cc3)cc2)cc1
- T/C (dose: 1.0 mg/kg/injection, schedule: Q04DX003 (ip), vehicle: Klucel (hydroxypropylcellulose) (HPC)): 116 % of control
- T/C (dose: 2.0 mg/kg/injection, schedule: Q01DX005 (ip), vehicle: suspension in saline): 187 % of control
- T/C (dose: 2.0 mg/kg/injection, schedule: Q04DX003 (ip), vehicle: Klucel (hydroxypropylcellulose) (HPC)): 166 % of control
- T/C (dose: 2.88 mg/kg/injection, schedule: Q04DX003 (ip), vehicle: water): 158 % of control
- T/C (dose: 4.0 mg/kg/injection, schedule: Q01DX005 (ip), vehicle: suspension in saline): 239 % of control
- T/C (dose: 4.0 mg/kg/injection, schedule: Q04DX003 (ip), vehicle: Klucel (hydroxypropylcellulose) (HPC)): 168 % of control
- T/C (dose: 4.8 mg/kg/injection, schedule: Q04DX003 (ip), vehicle: water): 167 % of control
- T/C (dose: 8.0 mg/kg/injection, schedule: Q01DX005 (ip), vehicle: suspension in saline): 283 % of control
- T/C (dose: 8.0 mg/kg/injection, schedule: Q04DX003 (ip), vehicle: Klucel (hydroxypropylcellulose) (HPC)): 237 % of control
- T/C (dose: 8.0 mg/kg/injection, schedule: Q04DX003 (ip), vehicle: water): 200 % of control
- T/C (dose: 9.0 mg/kg/injection, schedule: Q04DX003 (ip), vehicle: water): 170 % of control
- T/C (dose: 13.3 mg/kg/injection, schedule: Q04DX003 (ip), vehicle: water): 238 % of control
- T/C (dose: 16.0 mg/kg/injection, schedule: Q04DX003 (ip), vehicle: Klucel (hydroxypropylcellulose) (HPC)): 270 % of control
- T/C (dose: 32.0 mg/kg/injection, schedule: Q04DX003 (ip), vehicle: Klucel (hydroxypropylcellulose) (HPC)): 294 % of control

SMILES: CNC(=O)OCc1cnc2ccc(OC)cc2c1COC(=O)NC
- T/C (dose: 50.0 mg/kg/injection, schedule: Q01DX005 (ip), vehicle: Klucel (hydroxypropylcellulose) (HPC)): 92 % of control
- T/C (dose: 100.0 mg/kg/injection, schedule: Q01DX005 (ip), vehicle: Klucel (hydroxypropylcellulose) (HPC)): 99 % of control
- T/C (dose: 200.0 mg/kg/injection, schedule: Q01DX005 (ip), vehicle: Klucel (hydroxypropylcellulose) (HPC)): 102 % of control
